# Legend:
# HT22 cells = assay: MitoTracker Red mitochondrial membrane potential in glutamate challenged HT22 cells; assay type: cell-based; details: 1 μM, HT22 cells challenged with glutamate
# Excerpt: The mechanism of protection was investigated. […] FIG. 15B show quantification of fluorescent intensity per cell (n=3, *p<0.05, **p<0.01, bars represent S.E.M.).
# [1] = test system: retinal ganglion cell neurons (RGCs); assay: Rat chronic IOP (circumlimbal suture) glaucoma model; assay type: in vivo
# Excerpt: A method for reliably inducing sustained IOPs in the rodent eye was recently developed by Liu et al (55, 56). In this minimally invasive approach, a circumlimbal suture is placed to induce chronic ocular hypertension. An advantage of this strategy is that specific IOPs can be targeted and monitored by rebound tonometry, improving the consistency of results. In addition, following suturing elevated IOPs can be maintained for as long as 15 weeks (55). The model reproduces key features of glaucoma, such as; progressive and preferential decline in RGC function starting by week 8, gradual loss of the retinal nerve fiber layer (RNFL) by week 12, and RGC death by week 15, with minimal overt inflammation (55, 57). In the experiments, circumlimbal sutures were placed in the randomized right or left eyes of anesthetized rats using a sterile 8-0 nylon suture. IOP was measured twice a week, and only animals showing sustained elevated IOP over 21 mmHg for the duration of the experiment were included in the analyses. The delivery and dosage of LXB4 was based on previous publications (58-60). Briefly, LXB4 or vehicle were administered starting from week 8 on alternate days. Due to the unstable nature of lipoxins, a hybrid approach was taken to ensure consistent delivery, including both IP delivery (1 μg) and topically to each eye (100 ng). ERG was measured monthly to assess RGC functional changes using the positive scotopic threshold response (pSTR), which has been used to measure the impact of elevated chronic IOP in rats (55, 61). In addition, RNFL and total retinal thickness were quantified once a month using optical coherence tomography (OCT). After 15 weeks, animals were euthanized and RGC numbers were counted on middle and peripheral quadrants of retinal flatmounts following immunofluorescent staining for the RGC marker BRN3a as above.
# Therapeutic LXB4 treatment rescues RGC function in a chronic IOP dependent glaucoma model. To assess whether LXB4 action extends beyond acute stress models, it was investigated if it provides RGC protection in a chronic model more relevant to human neurodegenerative disease. For this purpose a recently described rat perilimbal suture model of glaucoma was used, in which moderately elevated intraocular pressure (IOP) can be consistently maintained over 15 weeks (55, 57). Elevated IOP is the primary clinical glaucoma risk factor, and this model results in similar compromised RGC function, reduced nerve fiber layer (NFL) thickness, and death of RGCs by week 15 (55). […] Therefore, this time point was chosen to initiate an experiment in which therapeutic treatment with LXB4 or vehicle was administered to sutured rats starting at week 8, with longitudinal and pathological assessment of RGC function and survival (FIG. 6A).
# LXB4 or vehicle treatment of sutured rats was initiated after 8 weeks of elevated IOP, and was delivered on alternate days until week 15. A control group was treated with vehicle only. Additionally, for each rat increased IOP was induced in the unilaterally, with the contralateral eye serving as control. IOP was monitored twice weekly throughout the experiment. As functional and structural endpoints, electroretinograms (ERG) and optical coherence tomography (OCT) were measured at week 0 (before placing the suture), and on weeks 4, 8, and 12, and 15 of elevated IOP.
# In vehicle eyes there were 35% and 30% fewer BRN3a positive RGCs in sutured eyes compared to contralateral controls in the […], respectively (FIG. 7A-FIG. 7B).
smiles,measurement,setting,value
"CCCCC[C@H](O)[C@H](O)/C=C/C=C/C=C\C=C\[C@@H](O)CCCC(=O)O [LXB4, 5S,14R,15S-trihydroxy-6E,8Z,10E,12E-eicosatetraenoic acid]",glutamate induced increase in mitochondrial membrane potential (MitoTracker Red),HT22 cells,blocked the glutamate induced increase in mitochondrial membrane potential
same,"RGC function, positive scotopic threshold response (pSTR, ERG)","[1]; IP 1 μg and topical 100 ng on alternate days from week 8 to 15, by week 12, vs vehicle",significant recovery
same,IOP levels compared to vehicle treated group,[1]; measured twice weekly throughout,did not differ
same,a-wave (photoreceptor) and b-wave (bipolar cell) ERG signals,[1]; treatment week 8 to 15,no LXB4 effects
same,total retinal thickness (OCT),[1]; treatment week 8 to 15,not affected
same,RNFL thickness loss (OCT),"[1]; treatment week 8 to 15, by week 15, vs vehicle",partially rescued
same,"BRN3a positive RGCs on retinal flatmounts, inner and outer retina","[1]; week 15, vs vehicle",significant rescue of RGCs

# Source: patent publication US11439615B2, “Lipoxin and lipoxin analogue mediated neuroprotection and treatments” (University Health Network, priority 2017, dated 2022)
